Test results: ChEMBL document CHEMBL1201862, “PubChem BioAssay data set” (2004)
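1) Cells in 96-well plates. 2) Compound, 48 h, 5 concentrations. 3) Linear interpolation between surrounding doses. 4) Unreached endpoint = highest concentration. Here, GI50 denotes the concentration required for 50% inhibition of growth.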 Calls of active or inactive are those of the source. No stated cut-off is given here; in the data, active = GI50 up to about 1.1 µM and inactive = higher.

Key:
Assay in all cases: growth of human tumour cells (NCI), 48 h
OVCAR-5 = test system: OVCAR-5
NCI/ADR-RES = test system: NCI/ADR-RES
786-0 = test system: 786-0
HOP-92 = test system: HOP-92
Hs-578T = test system: Hs-578T
SW-620 = test system: SW-620
SN12C = test system: SN12C
SF-268 = test system: SF-268
PC-3 = test system: PC-3
COLO 205 = test system: COLO 205
RXF 393 = test system: RXF 393
NCI-H522 = test system: NCI-H522
M14 = test system: M14
A498 = test system: A498
OVCAR-4 = test system: OVCAR-4
TK-10 = test system: TK-10
MDA-MB-231 = test system: MDA-MB-231
RPMI-8226 = test system: RPMI-8226
OVCAR-8 = test system: OVCAR-8

SMILES	GI50 (OVCAR-5)	GI50 (NCI/ADR-RES)	GI50 (786-0)	GI50 (HOP-92)	GI50 (Hs-578T)	GI50 (SW-620)	GI50 (SN12C)	GI50 (SF-268)	GI50 (PC-3)	GI50 (COLO 205)	GI50 (RXF 393)	GI50 (NCI-H522)	GI50 (M14)	GI50 (A498)	GI50 (OVCAR-4)	GI50 (TK-10)	GI50 (MDA-MB-231)	GI50 (RPMI-8226)	GI50 (OVCAR-8)
CCCCCCCCC/C=C1/CC(CO)(COC(=O)c2ccccc2)OC1=O (stereo not drawn)	12.2 µM (inactive)	15.5 µM (inactive)	10.4 µM (inactive)	1.61 µM (inactive)	3.69 µM (inactive)	14.4 µM (inactive)	12.5 µM (inactive)	15.7 µM (inactive)	10.8 µM (inactive)	1.85 µM (inactive)	15.6 µM (inactive)	13.7 µM (inactive)	14 µM (inactive)	13.2 µM (inactive)	12.7 µM (inactive)	10.8 µM (inactive)	12.6 µM (inactive)		
O=C1NC2c3c(I)sc(I)c3C(O)C2O1 (stereo not drawn)	> 100 µM (inactive)	> 100 µM (inactive)	> 100 µM (inactive)	> 100 µM (inactive)	> 100 µM (inactive)	> 100 µM (inactive)	> 100 µM (inactive)	> 100 µM (inactive)	> 100 µM (inactive)	> 100 µM (inactive)	> 100 µM (inactive)		> 100 µM (inactive)	> 100 µM (inactive)	> 100 µM (inactive)	> 100 µM (inactive)	> 100 µM (inactive)	> 100 µM (inactive)	> 100 µM (inactive)
Cc1cc(N(CCC#N)CCC#N)ccc1C(/N=N/c1ccc([N+](=O)[O-])cc1)=N\NC(=O)c1cc(Cl)ccc1C(=O)c1ccccc1	26.1 µM (inactive)	12.2 µM (inactive)	7.64 µM (inactive)		17.4 µM (inactive)	8.65 µM (inactive)	19.3 µM (inactive)	6.07 µM (inactive)	6.5 µM (inactive)	16.2 µM (inactive)	13 µM (inactive)	1.87 µM (inactive)	17.5 µM (inactive)		9.2 µM (inactive)	16.9 µM (inactive)	11.2 µM (inactive)	11 µM (inactive)	6.21 µM (inactive)
COC(=O)c1ccccc1C#CCCCOS(C)(=O)=O	> 10 µM (inactive)	> 10 µM (inactive)	> 10 µM (inactive)		> 10 µM (inactive)	> 10 µM (inactive)	> 10 µM (inactive)	> 10 µM (inactive)	> 10 µM (inactive)	> 10 µM (inactive)	> 10 µM (inactive)		> 10 µM (inactive)	> 10 µM (inactive)	> 10 µM (inactive)	> 10 µM (inactive)	> 10 µM (inactive)	> 10 µM (inactive)	> 10 µM (inactive)
CCOC(=O)COc1c(OC)cc(C2C3=C(COC3=O)Oc3cc4c(cc32)OCO4)cc1OC (stereo not drawn)	> 84.1 µM (inactive)	3.37 µM (inactive)	2.77 µM (inactive)	14.6 µM (inactive)	4.51 µM (inactive)	0.476 µM (active)	1.72 µM (inactive)	13.5 µM (inactive)	1.87 µM (inactive)	0.991 µM (active)		0.479 µM (active)	3.03 µM (inactive)		2.46 µM (inactive)	6.18 µM (inactive)	3.03 µM (inactive)	0.255 µM (active)	5.69 µM (inactive)
COc1ccc(/C=c2\s/c(=C3/SC(=S)N(c4ccccc4)C3=O)n(-c3ccccc3)c2=O)cc1	> 100 µM (inactive)	> 100 µM (inactive)	43.6 µM (inactive)	21.6 µM (inactive)	18.9 µM (inactive)	> 100 µM (inactive)	> 100 µM (inactive)	0.895 µM (active)	> 100 µM (inactive)	> 100 µM (inactive)		> 100 µM (inactive)	> 100 µM (inactive)	36.6 µM (inactive)	> 100 µM (inactive)	21.5 µM (inactive)	49.3 µM (inactive)	> 100 µM (inactive)	> 100 µM (inactive)
O=C1c2ccccc2CC12Cc1ccc3c(c1C2=O)CCCC3 (stereo not drawn)	> 100 µM (inactive)	7.06 µM (inactive)	7.85 µM (inactive)		0.491 µM (active)	6.32 µM (inactive)	14.1 µM (inactive)	> 100 µM (inactive)	66.7 µM (inactive)	13 µM (inactive)	4.13 µM (inactive)	5.21 µM (inactive)	8.61 µM (inactive)	23.7 µM (inactive)	3.29 µM (inactive)	> 100 µM (inactive)	0.948 µM (active)	18.2 µM (inactive)	26 µM (inactive)
Br[C@@H]1[C@H]2c3nc4ccccc4nc3[C@@H]1C[C@H]2Br	> 100 µM (inactive)	51.4 µM (inactive)	> 100 µM (inactive)	41.2 µM (inactive)	> 100 µM (inactive)	> 100 µM (inactive)	> 100 µM (inactive)	> 100 µM (inactive)	68.4 µM (inactive)	45.7 µM (inactive)	37.7 µM (inactive)	54.8 µM (inactive)	> 100 µM (inactive)	46.2 µM (inactive)	32.1 µM (inactive)	> 100 µM (inactive)	> 100 µM (inactive)		> 100 µM (inactive)
O=C1CC(=O)n2cnc3cccc(c32)N1	> 100 µM (inactive)	> 100 µM (inactive)	> 100 µM (inactive)	> 100 µM (inactive)	> 100 µM (inactive)	> 100 µM (inactive)	> 100 µM (inactive)	> 100 µM (inactive)	> 100 µM (inactive)	> 100 µM (inactive)	> 100 µM (inactive)		> 100 µM (inactive)	> 100 µM (inactive)	> 100 µM (inactive)		> 100 µM (inactive)	> 100 µM (inactive)	> 100 µM (inactive)
CCCN(CCC)C(=S)Sc1nc(C)nc(N2CCN(c3nc(C)nc(SC(=S)N(CCC)CCC)c3[N+](=O)[O-])CC2)c1[N+](=O)[O-]	23.4 µM (inactive)	41.5 µM (inactive)	3.62 µM (inactive)	15.8 µM (inactive)	> 63.7 µM (inactive)	3.53 µM (inactive)	8.77 µM (inactive)	18.8 µM (inactive)	15.2 µM (inactive)	0.262 µM (active)	4.19 µM (inactive)	0.316 µM (active)	15.2 µM (inactive)		17.3 µM (inactive)	20.1 µM (inactive)	7.69 µM (inactive)	0.386 µM (active)	5.5 µM (inactive)
CN(C)c1ccc(C=C2N=C(c3ccccc3)N(c3cc(C(=O)c4ccccc4)ccc3N3C(=O)/C(=C/c4ccc(N(C)C)cc4)N=C3c3ccccc3)C2=O)cc1	35.5 µM (inactive)	4.06 µM (inactive)	6.17 µM (inactive)	> 100 µM (inactive)	4.2 µM (inactive)	5.32 µM (inactive)	58.7 µM (inactive)	14.4 µM (inactive)	3.51 µM (inactive)	3.74 µM (inactive)			4.95 µM (inactive)	3.48 µM (inactive)	7.21 µM (inactive)	23.8 µM (inactive)	14.1 µM (inactive)	3.01 µM (inactive)	11.5 µM (inactive)
Cc1ccc(CS(=O)(=O)C/N=C2\Sc3ccccc3N\C2=C/C(=O)c2ccc(Cl)cc2)cc1	> 10 µM (inactive)	> 10 µM (inactive)	> 10 µM (inactive)	> 10 µM (inactive)	9.55 µM (inactive)	> 10 µM (inactive)	> 10 µM (inactive)	7.1 µM (inactive)	> 10 µM (inactive)	> 10 µM (inactive)		> 10 µM (inactive)	> 10 µM (inactive)		5.47 µM (inactive)	> 10 µM (inactive)	> 10 µM (inactive)	> 10 µM (inactive)	> 10 µM (inactive)
Cc1cn(C2CC(N=[N+]=[N-])C(CO[Si](C)(C)C(C)(C)C)O2)c(=O)[nH]c1=O (stereo not drawn)	23 µM (inactive)	16.6 µM (inactive)	15.6 µM (inactive)		17.6 µM (inactive)	16.9 µM (inactive)	15.6 µM (inactive)	19.5 µM (inactive)	15.7 µM (inactive)	17.5 µM (inactive)	15.5 µM (inactive)	16.8 µM (inactive)	21.4 µM (inactive)	16.1 µM (inactive)	14.2 µM (inactive)	16.3 µM (inactive)	13.6 µM (inactive)	17.9 µM (inactive)	19.4 µM (inactive)
O=C(Cn1c2ccc(Br)cc2c2nc3ccccc3nc21)N1CCOCC1	> 100 µM (inactive)	47.9 µM (inactive)	> 100 µM (inactive)	12.8 µM (inactive)	49.1 µM (inactive)	> 100 µM (inactive)	> 100 µM (inactive)	> 100 µM (inactive)	95.7 µM (inactive)	> 100 µM (inactive)	21.3 µM (inactive)		> 100 µM (inactive)	> 100 µM (inactive)	> 100 µM (inactive)	> 100 µM (inactive)	63.5 µM (inactive)	> 100 µM (inactive)	44.3 µM (inactive)
CC1=NN(c2nc(N)nc(CSc3cc(Cl)c(C)cc3S(N)(=O)=O)n2)C(C)(C)C1	> 10 µM (inactive)	> 10 µM (inactive)	> 10 µM (inactive)		> 10 µM (inactive)	> 10 µM (inactive)	> 10 µM (inactive)	> 10 µM (inactive)	> 10 µM (inactive)	> 10 µM (inactive)	> 10 µM (inactive)	> 10 µM (inactive)	> 10 µM (inactive)	> 10 µM (inactive)	> 10 µM (inactive)	> 10 µM (inactive)	> 10 µM (inactive)	> 10 µM (inactive)	> 10 µM (inactive)
